Laboratory results as given in US11944637B2, “Biomaterials comprising hyaluronic acid binding peptides and extracellular matrix binding peptides for hyaluronic acid retention and tissue engineering applications” (THE JOHNS HOPKINS UNIVERSITY, priority 2013, dated 2024).
No end group written: not given here.

Columns and labels:
articular cartilage = test: Visualization of the HA-bound layer with biotinylated HA on cartilage covalently modified with HABPep; type: binding, bovine; conditions: after washing, compared to unmodified cartilage incubated with HA-biotin alone
Method: C-HABPep was conjugated to articular cartilage through a heterobifunctional poly(ethylene glycol) (PEG) spacer. Maleimide-PEG-N-hydroxysuccinimide (MAL-PEG-NHS, 3.5 kDa, Jenkem Technologies), which has functionalities that are thiol- and amine-reactive, was dissolved to 5 mM in 50 mM sodium bicarbonate, pH 7.5 and added to the articular surface. The NHS groups were allowed to react with endogenous amines on the cartilage surface for 30 minutes. PEGylation was confirmed by attenuated total reflectance Fourier transform IR spectroscopy (ATR-FTIR; Bruker Vector 22 with a Pike Miracle ATR attachment). Following thorough washes in buffer to remove unreacted crosslinker, a 1.5 mM solution of C-HABPep was added to the surface to react with maleimide groups for an additional 30 minutes. Surfaces were carefully washed to remove unreacted peptide, yielding a cartilage surface with covalently attached HA-binding functionality. Visualization of the HA-bound layer. Cartilage was conjugated with C-HABPep and incubated with biotinylated HA synthesized as previously described. Briefly, HA (975 kDa) was dissolved in 50 mM boric acid, pH 5.2 at 2 mg/ml. This was combined with biotin hydrazide (Sigma) in a 20:1 weight ratio. […] The reaction was allowed to proceed at room temperature for 16 hours, after which it was dialyzed to remove unreacted biotin hydrazide and EDC. […]

collagen II = collagen II (Homo sapiens, UniProt P02458); test: Binding of collagen binding peptides conjugated to PEG-fluorescein on a thin coating of collagen II on TCP (fluorescence); conditions: for Normalized fluorescence intensity on collagen II coating: after washing, FIG. 2F, 2I; for Fluorescence intensity, binding on collagen II coating: compared to control and scrambled peptide, FIG. 2E, 2H
Description: (§1) FIGS. 2A-2K depict the clinically-relevant, non-covalent strategy, for one-step application of HA binding polymer system on tissue surface of the present invention. 2A, The first step in this strategy for coating a tissue surface is the reaction of a maleimide-PEG-NHS crosslinker with primary amines of the HA-binding peptide. Subsequently, peptides that non-covalently bind to ECM components, such as collagen I and collagen II, also having a thiol end group, is reacted to the maleimide. Finally, this polymer-peptide system of the present invention is mixed with an HA solution that binds to the peptide-polymer system, which on a single application makes a biomaterial-HA coating on the tissue surface. The binding of the collagen binding peptides were analyzed on thin coatings of collagen I and II on polystyrene tissue culture plates. A thin coating of collagen I on TCP with: 2B, i) No peptide, only PEG-fluorescein as a control, ii) scrambled collagen I binding peptide conjugated to PEG-fluorescein, iii) collagen I binding peptide conjugated to PEG-fluorescein, iv) scrambled collagen II binding peptide conjugated to PEG-fluorescein, v) collagen II binding peptide conjugated to PEG-fluorescein. […] A thin coating of collagen II on TCP with: 2G, i) No peptide, only PEG-fluorescein as a control, ii) scrambled collagen I binding peptide conjugated to PEG-fluorescein, iii) collagen I binding peptide conjugated to PEG-fluorescein, iv) scrambled collagen II binding peptide conjugated to PEG-fluorescein, v) collagen II binding peptide conjugated to PEG-fluorescein.
(§2) Second, a clinically relevant one-step injection/coating technology of the present invention was developed based on non-covalent binding of the HABpeptide-polymer system. Tissue surfaces, including, for example, articular cartilage, conjunctiva and sclera of an eye, are collagen I and II enriched, and can act as stable anchoring sites for the ECM binding peptides (ECMBPep). The HA-binding peptide that is linked to the ECMBPep through the PEG spacer can recapture HA that is lost through a physical or biological mechanism and can dynamically bind and concentrate HA where it is needed. Specifically, amine functionality of Col I and II ECMBPep were reacted with NHS-PEG-MAL followed by conjugation of C-HABPep to the Maleimide end groups. The resultant biomaterial composition of the present invention is mixed with HA and applied to tissue surfaces in a single step (FIG. 2A).

collagen I = collagen I (Homo sapiens, UniProt P02452+P08123); test: Binding of collagen binding peptides conjugated to PEG-fluorescein on a thin coating of collagen I on TCP (fluorescence); conditions: for Normalized fluorescence intensity on collagen I coating: after washing, FIG. 2D, 2K; for Fluorescence intensity, binding on collagen I coating: compared to control and scrambled peptide, FIG. 2C, 2J
Description: as §1, §2

[1] = system: human OA cartilage (severely damaged, OA stage 3-4); test: Lubrication testing (cartilage-on-cartilage friction), OA cartilage
Method: Cartilage sample preparation for lubrication testing. Cartilage samples were prepared for lubrication testing as a modification on previously published protocols (Arthritis and rheumatism 56, 882-891, (2007); Arthritis and rheumatism 50, 516-525, (2004)). Both normal and osteoarthritis tissue samples were ordered through (NDRI, Philadelphia, PA). Tissue samples were received within 24 hours post-mortem or surgery. Normal and diseased samples were received in a sterile container containing Dulbecco's Modified Eagle Medium (DMEM), and protease inhibitor cocktail. Biopsy punches were used to isolate cylindrical disks (radius=6 mm) and annuli (outer radius=4 mm, inner radius=1.5 mm) with small holes punctured through the cylinder walls to improve fluid depressurization. Due to the 24-hour time point in media washing for 24-hours to eliminate any lubricin, HA, and SAPLs; instead samples were washed for 4-6 hours in PBS on a shaker. […]
(§3) Lubrication testing. […] The samples were bathed in the test lubricant, measured with digital calipers, compressed to 82% of their original combined height, and preconditioned by rotating 2 revolutions in each direction at an effective sliding velocity of 3 mm/s, which is defined as the angular velocity times the effective radius of the annulus Reff=2/3[(Ro3−Ri3)/(Ro2−Ri2)]=2.94 mm. […]

[2] = system: normal human articular cartilage; test: Lubrication testing (cartilage-on-cartilage friction), normal cartilage
Method: Cartilage sample preparation for lubrication testing. Cartilage samples were prepared for lubrication testing as a modification on previously published protocols (Arthritis and rheumatism 56, 882-891, (2007); Arthritis and rheumatism 50, 516-525, (2004)). Both normal and osteoarthritis tissue samples were ordered through (NDRI, Philadelphia, PA). Tissue samples were received within 24 hours post-mortem or surgery. Normal and diseased samples were received in a sterile container containing Dulbecco's Modified Eagle Medium (DMEM), and protease inhibitor cocktail. Biopsy punches were used to isolate cylindrical disks (radius=6 mm) and annuli (outer radius=4 mm, inner radius=1.5 mm) with small holes punctured through the cylinder walls to improve fluid depressurization. Due to the 24-hour time point in media washing for 24-hours to eliminate any lubricin, HA, and SAPLs; instead samples were washed for 4-6 hours in PBS on a shaker. HA sample groups were always incubated in HA solution (5 mg/mL) for 24-hours post-washing (FIGS. 4b,c). It should be noted that human cartilage was scarce especially in OA samples received.
In later experiments, covalent modification of cartilage surface by HABpep (FIG. 1) was performed on bovine articular cartilage samples. All non-covalent HABpep modification and in vitro lubrication studies were performed using human articular cartilage samples (FIG. 3). Normal human tissue was isolated from cadavers […]. Human OA cartilage samples were isolated from the patients with ages, 58 (F), 60 (F), 61 (M), 65 (M), 69 (M), 71 (F), who underwent total knee arthroplasty. Care was taken to avoid damaging the articular surface during dissection. Samples (outer diameter=8.0 mm, inner diameter=3.0 mm) were microtomed and evenly cut to obtain a flat surface. The superficial layer was maintained intact and only the deep layer of cartilage was cut to obtain a flat layer to glue to the metal counter-surface while friction measurements. Cartilage was used fresh without freezing or the addition of protease inhibitors so as not to change the surface lubrication properties. Samples were washed vigorously in PBS overnight to deplete the cartilage surface of any residual synovial fluid, after which they were functionalized with an HA-binding layer as needed and incubated at 4° C. for about 24 hours in the test lubricant. […]
as §3

[3] = normal cartilage without coating, tested in HA bath
[4] = normal cartilage, HA bath compared to PBS bath

Sequence of collagen II (P02458 182-1241 limits assumed): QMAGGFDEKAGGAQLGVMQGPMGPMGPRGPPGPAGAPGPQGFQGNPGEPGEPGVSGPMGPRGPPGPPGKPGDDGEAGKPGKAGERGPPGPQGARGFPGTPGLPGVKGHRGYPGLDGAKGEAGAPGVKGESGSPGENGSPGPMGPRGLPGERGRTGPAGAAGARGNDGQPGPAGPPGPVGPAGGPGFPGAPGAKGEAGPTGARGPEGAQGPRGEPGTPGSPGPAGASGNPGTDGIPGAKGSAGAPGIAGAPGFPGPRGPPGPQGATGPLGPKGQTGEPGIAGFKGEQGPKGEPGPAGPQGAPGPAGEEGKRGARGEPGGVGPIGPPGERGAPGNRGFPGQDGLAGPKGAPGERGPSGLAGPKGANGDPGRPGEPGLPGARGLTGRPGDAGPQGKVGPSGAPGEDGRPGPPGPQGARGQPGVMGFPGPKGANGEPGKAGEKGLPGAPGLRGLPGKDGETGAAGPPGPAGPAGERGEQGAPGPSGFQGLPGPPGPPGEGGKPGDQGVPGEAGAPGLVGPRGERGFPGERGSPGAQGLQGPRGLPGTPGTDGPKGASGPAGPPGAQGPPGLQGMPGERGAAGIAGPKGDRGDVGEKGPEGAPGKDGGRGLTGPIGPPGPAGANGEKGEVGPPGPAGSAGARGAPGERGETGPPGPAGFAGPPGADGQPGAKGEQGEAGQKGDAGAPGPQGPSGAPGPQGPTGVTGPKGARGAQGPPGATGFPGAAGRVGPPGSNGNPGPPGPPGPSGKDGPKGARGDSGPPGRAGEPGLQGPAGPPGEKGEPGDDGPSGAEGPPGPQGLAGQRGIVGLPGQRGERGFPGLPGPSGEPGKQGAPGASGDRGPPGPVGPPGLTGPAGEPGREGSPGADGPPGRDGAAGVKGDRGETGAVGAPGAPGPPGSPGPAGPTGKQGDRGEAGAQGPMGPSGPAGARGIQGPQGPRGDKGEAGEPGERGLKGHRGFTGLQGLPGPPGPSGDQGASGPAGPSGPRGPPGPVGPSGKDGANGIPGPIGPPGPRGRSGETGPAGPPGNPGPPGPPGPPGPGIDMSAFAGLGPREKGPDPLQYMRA
Sequence of collagen I (P02452 162-1218 limits assumed): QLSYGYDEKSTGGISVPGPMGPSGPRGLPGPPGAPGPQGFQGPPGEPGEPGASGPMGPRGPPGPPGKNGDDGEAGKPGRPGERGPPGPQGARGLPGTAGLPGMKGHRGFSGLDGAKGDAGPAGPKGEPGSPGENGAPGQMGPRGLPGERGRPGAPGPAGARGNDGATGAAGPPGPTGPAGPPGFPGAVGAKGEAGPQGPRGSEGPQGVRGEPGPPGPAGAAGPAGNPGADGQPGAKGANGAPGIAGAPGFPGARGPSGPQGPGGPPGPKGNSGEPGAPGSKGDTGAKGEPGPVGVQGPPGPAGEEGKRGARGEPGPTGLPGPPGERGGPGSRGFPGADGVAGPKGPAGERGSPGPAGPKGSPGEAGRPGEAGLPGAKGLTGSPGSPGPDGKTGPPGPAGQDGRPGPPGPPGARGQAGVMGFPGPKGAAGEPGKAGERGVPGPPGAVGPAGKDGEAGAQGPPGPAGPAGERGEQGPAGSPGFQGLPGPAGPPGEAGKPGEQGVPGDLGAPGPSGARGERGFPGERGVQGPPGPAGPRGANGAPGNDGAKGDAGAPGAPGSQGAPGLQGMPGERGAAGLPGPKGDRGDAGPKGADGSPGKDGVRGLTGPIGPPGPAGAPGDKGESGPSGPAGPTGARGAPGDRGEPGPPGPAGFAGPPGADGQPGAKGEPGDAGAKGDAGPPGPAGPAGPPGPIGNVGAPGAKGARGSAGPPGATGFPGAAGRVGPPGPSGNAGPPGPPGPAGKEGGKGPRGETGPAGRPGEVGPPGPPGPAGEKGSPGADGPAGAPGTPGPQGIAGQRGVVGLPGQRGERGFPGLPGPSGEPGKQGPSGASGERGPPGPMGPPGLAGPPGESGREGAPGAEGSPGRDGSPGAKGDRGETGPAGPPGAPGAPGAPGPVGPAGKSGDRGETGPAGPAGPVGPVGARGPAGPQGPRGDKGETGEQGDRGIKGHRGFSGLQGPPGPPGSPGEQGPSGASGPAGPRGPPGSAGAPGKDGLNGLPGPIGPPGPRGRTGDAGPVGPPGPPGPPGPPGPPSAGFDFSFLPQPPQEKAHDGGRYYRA
Sequence of collagen I (P08123 80-1119 limits assumed): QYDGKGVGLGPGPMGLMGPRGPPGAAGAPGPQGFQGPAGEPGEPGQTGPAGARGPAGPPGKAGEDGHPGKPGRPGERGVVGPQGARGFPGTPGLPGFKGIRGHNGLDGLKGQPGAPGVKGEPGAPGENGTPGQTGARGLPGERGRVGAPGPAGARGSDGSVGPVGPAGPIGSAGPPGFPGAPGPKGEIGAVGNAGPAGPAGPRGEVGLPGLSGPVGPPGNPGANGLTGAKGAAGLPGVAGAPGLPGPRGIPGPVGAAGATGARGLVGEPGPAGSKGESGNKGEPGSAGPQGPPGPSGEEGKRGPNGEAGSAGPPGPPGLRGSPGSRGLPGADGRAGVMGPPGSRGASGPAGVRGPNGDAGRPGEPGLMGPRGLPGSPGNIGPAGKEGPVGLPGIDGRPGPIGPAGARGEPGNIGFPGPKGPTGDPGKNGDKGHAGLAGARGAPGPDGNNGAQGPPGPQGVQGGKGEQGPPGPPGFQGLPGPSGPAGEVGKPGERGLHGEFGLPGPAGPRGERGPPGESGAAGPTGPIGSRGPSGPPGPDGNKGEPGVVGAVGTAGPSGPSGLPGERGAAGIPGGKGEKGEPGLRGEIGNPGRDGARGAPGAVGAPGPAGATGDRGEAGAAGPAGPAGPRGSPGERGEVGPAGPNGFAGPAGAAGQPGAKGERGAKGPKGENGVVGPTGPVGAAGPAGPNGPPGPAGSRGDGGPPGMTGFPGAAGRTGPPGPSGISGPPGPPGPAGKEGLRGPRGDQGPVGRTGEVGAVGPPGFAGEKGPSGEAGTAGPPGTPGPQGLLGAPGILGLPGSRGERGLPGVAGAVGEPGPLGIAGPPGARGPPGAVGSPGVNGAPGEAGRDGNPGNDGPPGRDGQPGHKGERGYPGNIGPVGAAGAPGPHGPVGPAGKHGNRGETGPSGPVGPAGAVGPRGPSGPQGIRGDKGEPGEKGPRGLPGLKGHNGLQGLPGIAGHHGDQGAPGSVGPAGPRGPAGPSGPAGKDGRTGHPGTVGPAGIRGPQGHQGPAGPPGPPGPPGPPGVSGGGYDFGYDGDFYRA

| Substance | Normalized fluorescence intensity on collagen II coating (collagen II) | Fluorescence intensity, binding on collagen II coating (collagen II) | Normalized fluorescence intensity on collagen I coating (collagen I) | Fluorescence intensity, binding on collagen I coating (collagen I) | further results |
| --- | --- | --- | --- | --- | --- |
| CRRDDGAHWQFNALTVR (SEQ ID NO: 2) (thiol; MAL-PEG-NHS conjugated to cartilage; listed as Homo sapiens) [HA-binding polymer coating] | – | – | – | – | Staining of bound biotinylated HA (streptavidin, horseradish peroxidase) (articular cartilage): stained darker; Staining of bound biotinylated HA (streptavidin, horseradish peroxidase) (articular cartilage; listed as C-HABPep): greater intensity of staining |
| WYRGRL (SEQ ID NO: 4) (also: PEG-fluorescein conjugate; listed as Homo sapiens) [collagen II binding peptide, ECMBPep for collagen II; tested conjugated to PEG-fluorescein] | 1.65 times to that of scrambled peptide | significant binding | did not bind | no significant binding | – |
| YSFYSDESLQ (SEQ ID NO: 3) (also: PEG-fluorescein conjugate; listed as Homo sapiens) [collagen I binding peptide, ECMBPep for collagen I; tested conjugated to PEG-fluorescein] | did not bind | no significant binding | 1.55 times to that of scrambled peptide | significant binding | – |
| hyaluronic acid [HA] | – | – | – | – | static lubricity value (<μ> in PBS-<μ> in HA), most severely damaged OA samples vs normal cartilage ([1]; FIG. 4w): approximately 5 times; kinetic lubricity value (<μ> in PBS-<μ> in HA), most severely damaged OA samples vs normal cartilage ([1]; FIG. 4x): approximately 5 times; <μk> kinetic friction [2, 3]: 0.008; <μs> static friction [2, 3]: 0.018; decrease of kinetic total friction value [2, 4]: 72%; decrease of static total friction value [2, 4]: 35% |
